Consider 1 molecule from publication PMC6934184, “Selective DNA-PKcs inhibition extends the therapeutic index of localized radiotherapy and chemotherapy” (The Journal of Clinical Investigation, 2019).

This assay has as its target T1, MAPK11 (p38 beta) (Homo sapiens, UniProt Q15759).
T1 construct: purchased Thermo Fisher Scientific (Life Technologies) SelectScreen
In words: SelectScreen Z'LYTE. Format: biochemical. An outline of the steps:
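Percent values come from Thermo SelectScreen profiling of NU5455, combining activity and binding assays. CSF1R was run in Z'LYTE format at Km app ATP, and CAMK1 in Adapta format with ATP listed at 10.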

T1 sequence (Q15759 whole entry): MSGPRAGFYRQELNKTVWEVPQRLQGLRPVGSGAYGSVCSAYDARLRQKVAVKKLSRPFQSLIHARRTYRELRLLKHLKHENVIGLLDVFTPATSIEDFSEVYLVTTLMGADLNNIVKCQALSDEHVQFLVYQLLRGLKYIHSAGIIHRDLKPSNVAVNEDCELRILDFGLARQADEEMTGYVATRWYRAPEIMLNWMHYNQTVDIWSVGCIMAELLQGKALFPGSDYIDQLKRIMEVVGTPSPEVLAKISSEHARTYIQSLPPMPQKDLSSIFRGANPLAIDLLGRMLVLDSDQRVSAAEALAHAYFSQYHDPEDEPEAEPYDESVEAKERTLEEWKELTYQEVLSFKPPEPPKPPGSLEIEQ

Regarding `CN(C(=O)CN1CCOCC1)c1ccc2sc3c(-c4cccc5c(=O)cc(N6CC7CCC(C6)O7)oc45)cccc3c2c1` [NU5455], the inhibition (as a rule, the percentage by which the read-out fell short of the control) at 1 µM came out at 9.5%.
